The text below walks through data of US12258327B2, “5-membered heteroaryl-containing aminopyridine compounds as EGFR inhibitors” (YUHAN CORPORATION, priority 2021, dated 2025).

Read-outs that look alike come from different tables or passages of the source. Where only a bound is given, the exact number is not on record here.

Test [1] addresses EGFR del19/C797S (Homo sapiens, UniProt P00533, C797S/DEL746-750). As to the kind of experiment: Biochemical EGFR kinase assay (Lance Ultra TR-FRET), double mutant del19/C797S. As for the experimental part: (§1) Biochemical EGFR kinase assays were conducted using Lance Ultra time-resolved fluorescence resonance energy transfer (TR-FRET) technology from Perkin-Elmer. Compounds of the invention were initially diluted to 20 mM in 100% DMSO for storage and made into kinase buffer solution to create a compound concentration ranging from 0.003 μM and 10 μM.
(§2) Each kinase reactions were incubated at room temperature for 1 hour and then stopped by the addition of 4 μL of stop solution (10 mM EDTA). The specific Europium-labeled-anti-phosphopeptide antibody (PerkinElmer, AD0069) diluted in LANCE detection buffer was then added to a final concentration of 2 nM. After 60 minutes incubation at room temperature the LANCE signal was measured on an EnVision Multilabel Reader (Perkin-Elmer). Excitation wavelength was set at 320 nm and emission monitored at 615 nm (donor) and 665 nm (acceptor). The IC50 values were determined using GraphPad prism software (GraphPad Software, Inc., San Diego, CA, USA).
A general note: TR-FRET usually uses a lanthanide donor and a delayed reading to cut background.

The target of test [2] is EGFR del19/T790M/C797S (Homo sapiens, UniProt P00533, C797S/DEL746-750/T790M). As to the kind of experiment: Biochemical EGFR kinase assay (Lance Ultra TR-FRET), triple mutant del19/T790M/C797S. As for the experimental part:
as §1, §2

Test [3] has as its target EGFR L858R/C797S (Homo sapiens, UniProt P00533, C797S/L858R). As to the kind of experiment: Biochemical EGFR kinase assay (Lance Ultra TR-FRET), double mutant L858R/C797S. The procedure: as §1, §2
Test [4] has as its target EGFR L858R/T790M/C797S (Homo sapiens, UniProt P00533, C797S/L858R/T790M). As to the kind of experiment: Biochemical EGFR kinase assay (Lance Ultra TR-FRET), triple mutant L858R/T790M/C797S. As for the experimental part: as §1, §2
Test [5] addresses EGFR wildtype (WT) (Homo sapiens, UniProt P00533). The experiment in a line: Biochemical EGFR kinase assay (Lance Ultra TR-FRET), wildtype. As for the experimental part:
as §1, §2

The mark [6] stands for this setting: Km ATP, read-out: IC50 del19/C797S (nM) Km ATP.
[7] abbreviates: Km ATP, read-out: IC50 del19/T790M/C797S (nM) Km ATP.
[8] abbreviates: Km ATP, read-out: IC50 L858R/T790M/C797S, Km ATP.
Setting [9] is: Km ATP, read-out: IC50 WT, Km ATP.
Setting [10] is: Km ATP, read-out: IC50 del19/C797S, Km ATP.
The mark [11] stands for this setting: Km ATP, read-out: IC50 WT (nM) Km ATP.
Setting [12] is: Km ATP, read-out: IC50 L858R/T790M/C797S (nM) Km ATP.
Setting [13] is: IC50 L858R/T790M/C797S (nM) 100 μM ATP, 100 μM ATP.
[14] abbreviates: IC50 WT (nM) 100 μM ATP, 100 μM ATP.
Setting [15] is: IC50 del19/C797S (nM) 100 μM ATP, 100 μM ATP.
[16] abbreviates: IC50 L858R/C797S (nM) 100 μM ATP, 100 μM ATP.
[17] abbreviates: Km ATP, read-out: IC50 L858R/C797S (nM) Km ATP.

Sequence of EGFR del19/C797S (P00533 with tags, fused parts or gaps DEL746-750/C797S): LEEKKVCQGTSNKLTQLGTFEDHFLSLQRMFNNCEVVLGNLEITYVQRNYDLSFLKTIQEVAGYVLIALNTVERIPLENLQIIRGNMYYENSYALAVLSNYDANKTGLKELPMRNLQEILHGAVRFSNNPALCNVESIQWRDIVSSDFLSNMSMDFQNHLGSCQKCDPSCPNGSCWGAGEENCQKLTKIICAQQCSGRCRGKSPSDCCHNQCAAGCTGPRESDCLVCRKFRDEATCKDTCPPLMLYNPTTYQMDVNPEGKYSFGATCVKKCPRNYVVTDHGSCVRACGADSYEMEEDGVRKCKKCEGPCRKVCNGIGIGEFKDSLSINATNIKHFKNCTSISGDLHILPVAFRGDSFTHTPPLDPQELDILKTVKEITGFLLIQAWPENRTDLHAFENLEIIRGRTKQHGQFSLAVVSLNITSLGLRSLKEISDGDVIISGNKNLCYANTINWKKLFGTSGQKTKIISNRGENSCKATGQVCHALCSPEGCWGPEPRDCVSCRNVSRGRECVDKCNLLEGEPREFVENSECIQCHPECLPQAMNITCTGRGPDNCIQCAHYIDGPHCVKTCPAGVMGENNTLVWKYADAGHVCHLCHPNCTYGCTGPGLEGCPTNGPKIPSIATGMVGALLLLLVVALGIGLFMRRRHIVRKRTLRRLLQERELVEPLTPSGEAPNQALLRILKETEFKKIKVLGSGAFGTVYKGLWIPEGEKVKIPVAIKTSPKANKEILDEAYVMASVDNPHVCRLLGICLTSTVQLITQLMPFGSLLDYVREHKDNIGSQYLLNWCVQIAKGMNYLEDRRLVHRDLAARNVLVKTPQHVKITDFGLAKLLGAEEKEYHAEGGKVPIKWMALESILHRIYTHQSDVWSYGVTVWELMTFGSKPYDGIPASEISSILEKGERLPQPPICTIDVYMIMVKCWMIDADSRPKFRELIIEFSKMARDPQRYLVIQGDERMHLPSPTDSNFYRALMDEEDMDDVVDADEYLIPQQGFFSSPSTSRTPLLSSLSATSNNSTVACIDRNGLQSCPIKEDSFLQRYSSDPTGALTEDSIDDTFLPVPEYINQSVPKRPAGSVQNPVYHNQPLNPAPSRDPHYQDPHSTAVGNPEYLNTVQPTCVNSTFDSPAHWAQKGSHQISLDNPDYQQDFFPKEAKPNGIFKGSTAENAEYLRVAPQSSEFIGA
Sequence of EGFR wildtype (WT) (P00533 25-1210): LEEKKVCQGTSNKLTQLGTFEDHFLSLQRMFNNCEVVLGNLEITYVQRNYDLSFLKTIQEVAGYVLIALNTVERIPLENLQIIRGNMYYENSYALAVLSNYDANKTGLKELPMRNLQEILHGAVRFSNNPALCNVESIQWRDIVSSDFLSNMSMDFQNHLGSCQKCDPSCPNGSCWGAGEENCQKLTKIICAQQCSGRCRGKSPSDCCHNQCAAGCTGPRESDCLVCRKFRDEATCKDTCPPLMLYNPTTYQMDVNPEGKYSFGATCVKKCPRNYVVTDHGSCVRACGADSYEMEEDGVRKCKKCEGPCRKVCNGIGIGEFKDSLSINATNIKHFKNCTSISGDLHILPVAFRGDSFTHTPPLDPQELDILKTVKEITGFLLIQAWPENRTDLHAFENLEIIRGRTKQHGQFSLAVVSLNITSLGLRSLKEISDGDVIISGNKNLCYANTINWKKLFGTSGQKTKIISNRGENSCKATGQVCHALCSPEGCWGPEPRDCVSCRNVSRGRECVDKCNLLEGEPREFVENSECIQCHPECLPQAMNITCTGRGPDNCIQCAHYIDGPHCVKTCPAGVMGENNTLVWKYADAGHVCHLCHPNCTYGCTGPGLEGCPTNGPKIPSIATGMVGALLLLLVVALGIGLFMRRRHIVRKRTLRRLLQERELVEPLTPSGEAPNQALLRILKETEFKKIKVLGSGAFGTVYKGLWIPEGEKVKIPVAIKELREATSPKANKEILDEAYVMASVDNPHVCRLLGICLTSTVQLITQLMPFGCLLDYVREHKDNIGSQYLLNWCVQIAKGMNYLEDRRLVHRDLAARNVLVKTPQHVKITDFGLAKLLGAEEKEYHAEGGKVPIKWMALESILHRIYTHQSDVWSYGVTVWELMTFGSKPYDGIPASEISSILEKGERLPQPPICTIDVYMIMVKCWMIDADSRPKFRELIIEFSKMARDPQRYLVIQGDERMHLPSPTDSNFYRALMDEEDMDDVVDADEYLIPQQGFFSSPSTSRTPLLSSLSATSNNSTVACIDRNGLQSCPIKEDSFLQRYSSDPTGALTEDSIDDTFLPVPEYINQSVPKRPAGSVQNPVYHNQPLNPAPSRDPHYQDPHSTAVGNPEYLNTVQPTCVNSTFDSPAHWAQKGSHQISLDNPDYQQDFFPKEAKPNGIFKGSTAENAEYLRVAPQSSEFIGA
Sequence of EGFR L858R/T790M/C797S (P00533 25-1210 T790M/C797S/L858R): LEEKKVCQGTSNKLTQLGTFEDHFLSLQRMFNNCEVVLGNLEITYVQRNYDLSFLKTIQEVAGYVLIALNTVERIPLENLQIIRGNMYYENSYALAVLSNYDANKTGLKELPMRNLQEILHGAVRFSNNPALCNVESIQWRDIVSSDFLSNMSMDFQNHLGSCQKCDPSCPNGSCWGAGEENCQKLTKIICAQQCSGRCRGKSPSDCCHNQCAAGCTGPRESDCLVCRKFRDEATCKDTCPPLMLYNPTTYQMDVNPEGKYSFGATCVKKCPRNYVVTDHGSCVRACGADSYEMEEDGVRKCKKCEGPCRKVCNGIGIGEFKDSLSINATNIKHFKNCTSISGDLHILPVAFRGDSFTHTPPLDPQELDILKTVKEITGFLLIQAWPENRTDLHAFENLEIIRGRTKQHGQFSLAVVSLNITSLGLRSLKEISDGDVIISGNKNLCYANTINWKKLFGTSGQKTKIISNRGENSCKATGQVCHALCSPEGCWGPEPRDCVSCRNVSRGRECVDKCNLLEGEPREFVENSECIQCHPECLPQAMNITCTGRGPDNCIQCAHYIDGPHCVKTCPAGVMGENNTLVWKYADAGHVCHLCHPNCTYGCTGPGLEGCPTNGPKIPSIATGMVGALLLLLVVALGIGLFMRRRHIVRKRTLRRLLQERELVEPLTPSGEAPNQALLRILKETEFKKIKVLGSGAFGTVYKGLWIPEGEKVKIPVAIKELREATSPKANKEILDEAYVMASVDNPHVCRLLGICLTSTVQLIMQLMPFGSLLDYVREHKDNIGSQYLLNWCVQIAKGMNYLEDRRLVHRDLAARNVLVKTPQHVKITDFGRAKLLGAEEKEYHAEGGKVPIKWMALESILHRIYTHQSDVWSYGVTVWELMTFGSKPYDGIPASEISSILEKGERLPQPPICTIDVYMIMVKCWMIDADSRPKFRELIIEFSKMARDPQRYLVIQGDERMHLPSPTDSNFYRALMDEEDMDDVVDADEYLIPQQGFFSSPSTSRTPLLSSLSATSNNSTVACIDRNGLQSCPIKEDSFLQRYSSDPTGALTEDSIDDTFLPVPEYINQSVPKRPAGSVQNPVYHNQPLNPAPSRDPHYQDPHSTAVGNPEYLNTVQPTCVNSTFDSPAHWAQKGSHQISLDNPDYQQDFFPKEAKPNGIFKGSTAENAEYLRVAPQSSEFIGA
Sequence of EGFR del19/T790M/C797S (P00533 with tags, fused parts or gaps DEL746-750/T790M/C797S): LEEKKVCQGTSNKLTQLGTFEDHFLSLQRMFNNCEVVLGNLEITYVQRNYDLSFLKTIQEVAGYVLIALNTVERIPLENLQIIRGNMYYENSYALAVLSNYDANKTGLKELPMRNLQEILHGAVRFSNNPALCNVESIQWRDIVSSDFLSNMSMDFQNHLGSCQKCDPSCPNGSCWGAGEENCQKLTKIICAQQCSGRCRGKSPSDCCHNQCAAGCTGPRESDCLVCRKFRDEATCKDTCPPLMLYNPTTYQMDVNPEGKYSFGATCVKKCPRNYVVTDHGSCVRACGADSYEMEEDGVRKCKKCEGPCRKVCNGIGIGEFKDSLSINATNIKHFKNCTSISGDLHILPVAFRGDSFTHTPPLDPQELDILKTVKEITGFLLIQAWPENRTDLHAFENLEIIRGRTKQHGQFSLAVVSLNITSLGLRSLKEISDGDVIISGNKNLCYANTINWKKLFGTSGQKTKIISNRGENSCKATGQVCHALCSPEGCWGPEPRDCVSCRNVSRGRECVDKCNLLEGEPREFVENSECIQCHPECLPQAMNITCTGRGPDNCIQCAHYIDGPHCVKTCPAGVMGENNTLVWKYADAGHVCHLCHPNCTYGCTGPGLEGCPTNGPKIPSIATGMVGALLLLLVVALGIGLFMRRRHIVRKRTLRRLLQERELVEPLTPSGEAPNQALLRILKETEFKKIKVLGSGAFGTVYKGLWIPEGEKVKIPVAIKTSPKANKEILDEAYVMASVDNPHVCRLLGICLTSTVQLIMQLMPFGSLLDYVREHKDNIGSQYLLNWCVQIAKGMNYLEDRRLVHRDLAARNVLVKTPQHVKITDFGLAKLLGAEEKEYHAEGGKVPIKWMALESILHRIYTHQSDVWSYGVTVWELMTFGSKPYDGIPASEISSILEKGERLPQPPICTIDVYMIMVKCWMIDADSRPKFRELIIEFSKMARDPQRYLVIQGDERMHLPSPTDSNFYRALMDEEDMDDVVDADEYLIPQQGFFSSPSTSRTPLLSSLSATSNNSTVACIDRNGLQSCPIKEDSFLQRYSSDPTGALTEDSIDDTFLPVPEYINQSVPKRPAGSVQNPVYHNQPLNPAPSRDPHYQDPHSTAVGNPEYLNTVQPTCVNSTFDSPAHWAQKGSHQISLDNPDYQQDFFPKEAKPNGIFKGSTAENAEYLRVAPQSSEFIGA

For `Cn1cc(C#Cc2cc(Nc3ccnc(-c4cnn(S(=O)(=O)C5CC5)c4)n3)ncc2-c2cnn(C(F)F)c2)cn1` [Example 2, 2-(1-(Cyclopropylsulfonyl)-1H-pyrazol-4-yl)-N-(5-(1-(difluoromethyl)-1H-pyrazol-4-yl)-4-((1-methyl-1H-pyrazol-4-yl)ethynyl)pyridin-2-yl)pyrimidin-4-amine], the IC50 came to 371 nM in test [1] (setting [6]) and 31.3 nM in test [2] (setting [7]).
Take `CC(C)(O)[C@H]1CC[C@@H](Nc2nc(Nc3ccnc(-c4cnn(S(=O)(=O)C5CC5)c4)c3)ncc2-c2ccn(C(F)F)n2)CC1` [Example 365, 2-((1s,4s)-4-((2-((2-(1-(Cyclopropylsulfonyl)-1H-pyrazol-4-yl)pyridin-4-yl)amino)-5-(1-(difluoromethyl)-1H-pyrazol-3-yl)pyrimidin-4-yl)amino)cyclohexyl)propan-2-ol]: the IC50 in test [3] (Km ATP, read-out: IC50 L858R/C797S, Km ATP) came to 48.4 nM; in test [4] (setting [8]), 2.3 nM; in test [5] (setting [9]), 306 nM; in test [1] (setting [10]), 45.4 nM.
Regarding `Cn1nc(-c2cnc(Nc3ccnc(-c4cnn(S(=O)(=O)C5CC5)c4)n3)cc2N[C@H]2CC[C@@](C)(O)CC2)cc1N1CCC(F)(F)CC1` [Example 307, (1s,4s)-4-((2-((2-(1-(Cyclopropylsulfonyl)-1H-pyrazol-4-yl)pyrimidin-4-yl)amino)-5-(5-(4,4-difluoropiperidin-1-yl)-1-methyl-1H-pyrazol-3-yl)pyridin-4-yl)amino)-1-methylcyclohexan-1-ol], the figures for the IC50 in test [5] (setting [11]) and in test [1] (setting [6]) were 20.9 nM and 7.5 nM, respectively.
`CC(C)n1cc(C#Cc2cc(Nc3ccnc(-c4cnn(S(=O)(=O)C5CC5)c4)n3)ncc2-c2cnn(C3CC3)c2)cn1` [Example 6, N-(5-(1-Cyclopropyl-1H-pyrazol-4-yl)-4-((1-isopropyl-1H-pyrazol-4-yl)ethynyl)pyridin-2-yl)-2-(1-(cyclopropylsulfonyl)-1H-pyrazol-4-yl)pyrimidin-4-amine]: the IC50 turned out to be 19.5 nM in test [4] (setting [12]), 347 nM in test [1] (setting [6]) and 16.1 nM in test [2] (setting [7]).
In the case of `C[C@]1(O)CC[C@@H](Nc2cc(Nc3ccnc(-c4cnn(S(=O)(=O)C5CC5)c4)n3)ncc2-c2cn(C(F)F)cn2)CC1` [Example 273, (1s,4s)-4-((2-((2-(1-(Cyclopropylsulfonyl)-1H-pyrazol-4-yl)pyrimidin-4-yl)amino)-5-(1-(difluoromethyl)-1H-imidazol-4-yl)pyridin-4-yl)amino)-1-methylcyclohexan-1-ol], the IC50 in test [4] (setting [13]) came out at 1.3 nM; in test [5] (setting [14]), 7310 nM; in test [5] (setting [11]), 5.9 nM; in test [1] (setting [15]), 0.9 nM; in test [2] (setting [7]), 3.1 nM.
Regarding `C[C@]1(O)CC[C@@H](Nc2cc(Nc3ccnc(-c4cnn(S(=O)(=O)C5CC5)c4)n3)ncc2-c2ccn(CC(F)(F)F)n2)CC1` [Example 289, (1s,4s)-4-((2-((2-(1-(Cyclopropylsulfonyl)-1H-pyrazol-4-yl)pyrimidin-4-yl)amino)-5-(1-(2,2,2-trifluoroethyl)-1H-pyrazol-3-yl)pyridin-4-yl)amino)-1-methylcyclohexan-1-ol], the IC50 in test [3] (setting [16]) is 27.4 nM; in test [5] (setting [14]), > 10000 nM; in test [5] (setting [11]) it was 17.4 nM; in test [1] (setting [15]), 2.7 nM.
On to `Cn1cc(C#Cc2cc(Nc3ccnc(-c4cnn(S(=O)(=O)C5CC5)c4)n3)ncc2-c2cnn(CC3CC3)c2)cn1` [Example 3, N-(5-(1-(Cyclopropylmethyl)-1H-pyrazol-4-yl)-4-((1-methyl-1H-pyrazol-4-yl)ethynyl)pyridin-2-yl)-2-(1-(cyclopropylsulfonyl)-1H-pyrazol-4-yl)pyrimidin-4-amine], for which the IC50 amounted to 229 nM in test [5] (setting [11]), 39.7 nM in test [1] (setting [6]) and 6.4 nM in test [2] (setting [7]).
Regarding `Cn1nc(-c2cnc(Nc3ccnc(-c4cnn(CC(F)F)c4)n3)cc2N[C@H]2CC[C@@H](CCO)CC2)cc1C(F)(F)F` [Example 333, 2-((1s,4s)-4-((2-((2-(1-(2,2-Difluoroethyl)-1H-pyrazol-4-yl)pyrimidin-4-yl)amino)-5-(1-methyl-5-(trifluoromethyl)-1H-pyrazol-3-yl)pyridin-4-yl)amino)cyclohexyl)ethan-1-ol], the IC50 in test [4] (setting [8]) was 2.9 nM; in test [5] (setting [9]), 61.5 nM; in test [1] (setting [10]), 16.5 nM; in test [2] (Km ATP, read-out: IC50 del19/T790M/C797S, Km ATP), 4.4 nM.
`Cn1cc(C#Cc2cc(Nc3ccnc(-c4cnn(S(=O)(=O)C5CC5)c4)n3)ncc2-c2cnn(C3CC3)c2)cn1` [Example 1, N-(5-(1-Cyclopropyl-1H-pyrazol-4-yl)-4-((1-methyl-1H-pyrazol-4-yl)ethynyl)pyridin-2-yl)-2-(1-(cyclopropylsulfonyl)-1H-pyrazol-4-yl)pyrimidin-4-amine]: the IC50 was 5.9 nM in test [4] (setting [12]), 88.5 nM in test [5] (setting [11]), 63 nM in test [1] (setting [6]) and 99 nM in test [2] (setting [7]).
As for `O=S(=O)(C1CC1)n1cc(-c2nccc(Nc3cc(C#Cc4cnn(C5CC5)c4)c(-c4cnn(C5CC5)c4)cn3)n2)cn1` [Example 5, N-(5-(1-Cyclopropyl-1H-pyrazol-4-yl)-4-((1-cyclopropyl-1H-pyrazol-4-yl)ethynyl)pyridin-2-yl)-2-(1-(cyclopropylsulfonyl)-1H-pyrazol-4-yl)pyrimidin-4-amine], the results for the IC50 in test [4] (setting [12]), in test [1] (setting [6]) and in test [2] (setting [7]) were 13.2 nM, 317 nM and 10.6 nM, respectively.
Take `C[C@]1(O)CC[C@@H](Nc2cc(Nc3ccnc(-c4cnn(S(=O)(=O)C5CC5)c4)n3)ncc2-n2ccc(OC(F)F)n2)CC1` [Example 187, (1s,4s)-4-((2-((2-(1-(Cyclopropylsulfonyl)-1H-pyrazol-4-yl)pyrimidin-4-yl)amino)-5-(3-(difluoromethoxy)-1H-pyrazol-1-yl)pyridin-4-yl)amino)-1-methylcyclohexan-1-ol]: the IC50 amounted to 0.5 nM in test [4] (setting [12]), 282 nM in test [5] (setting [11]), 15.4 nM in test [1] (setting [6]) and 0.7 nM in test [2] (setting [7]).
In the case of `Cn1cc(-c2cnc(Nc3ccnc(-c4cnn(S(=O)(=O)C5CC5)c4)n3)cc2C#CC(C)(C)O)cn1` [Example 4, 4-(2-((2-(1-(Cyclopropylsulfonyl)-1H-pyrazol-4-yl)pyrimidin-4-yl)amino)-5-(1-methyl-1H-pyrazol-4-yl)pyridin-4-yl)-2-methylbut-3-yn-2-ol], the IC50 in test [3] (setting [17]) turned out to be 75.9 nM; in test [4] (setting [12]), 0.8 nM; in test [5] (setting [11]), 214 nM; in test [2] (setting [7]) it was 3.2 nM.
As to `CN(C)CC1(C)CCC(Nc2cc(Nc3ccnc(-c4cnn(S(=O)(=O)C5CC5)c4)n3)ncc2-c2ccn(C(F)F)n2)CC1` (centres unmarked) [Example 207, N^2-(2-(1-(Cyclopropylsulfonyl)-1H-pyrazol-4-yl)pyrimidin-4-yl)-5-(1-(difluoromethyl)-1H-pyrazol-3-yl)-N^4-(4-((dimethylamino)methyl)-4-methylcyclohexyl)pyridine-2,4-diamine], the IC50 in test [3] (setting [16]) was found to be 200 nM; in test [3] (setting [17]) it was 10.5 nM; in test [4] (setting [13]), 1 nM; in test [4] (setting [12]), 0.3 nM; in test [5] (setting [14]), 5120 nM; in test [5] (setting [11]), 15.3 nM. Further, the IC50 in test [2] (IC50 del19/T790M/C797S (nM) 100 μM ATP, 100 μM ATP) amounted to 0.7 nM; in test [2] (setting [7]), 0.8 nM.
